What is called IC50 is the concentration that inhibits the measured activity by half.

The target in assay [1] is T1, Calcium/calmodulin-dependent protein kinase type II subunit alpha (Homo sapiens, UniProt Q9UQM7). The assay is described as follows: Inhibition of alphaCaMK2 using GST-NR2A as substrate incubated for 1 min prior to substrate addition measured after 1 min.
A short description of assay [2]: Inhibition of Albino Wistar rat CaMK2 in postsynaptic density fraction using GST-NR2A as substrate incubated for 1 min prior to substrate addition measured after 1 min.
The target in assay [3] is T1, Calcium/calmodulin-dependent protein kinase type II subunit alpha. The assay is described as follows: Inhibition of autophosphorylated alphaCaMK2 using GST-NR2A as substrate incubated for 1 min prior to substrate addition measured after 1 min in presence of EGTA.
The nature of assay [4]: Inhibition of Albino Wistar rat CaMK2 autophosphorylation at Thr286 in postsynaptic density fraction using [gamma32P]ATP incubated for 30 secs prior to ATP addition measured after 30 secs.
A short description of assay [5]: Inhibition of Albino Wistar rat CaMK2 in brain cytosolic fraction using GST-NR2A as substrate incubated for 1 min prior to substrate addition measured after 1 min. The format is tissue-based.
The target of assay [6] is T1, Calcium/calmodulin-dependent protein kinase type II subunit alpha. The assay can be described thus: Inhibition of alphaCaMK2 autophosphorylation at Thr286 using [gamma32P]ATP incubated for 30 secs prior to ATP addition measured after 30 secs.
Assay [7] in a line: Inhibition of Albino Wistar rat CaMK2 in brain cytosolic fraction using GST-NR2A as substrate incubated for 1 min prior to substrate addition measured after 1 min in presence of EGTA. The assay is classed as tissue-based.
A short description of assay [8]: Inhibition of Albino Wistar rat CaMK2 in postsynaptic density fraction using GST-NR2A as substrate incubated for 1 min prior to substrate addition measured after 1 min in presence of EGTA.
In assay [9] the target is Calcium/calmodulin-dependent protein kinase type II subunit alpha (Homo sapiens, UniProt Q9UQM7, T286D). The assay is described as follows: Inhibition of alphaCaMK2 T286D mutant using GST-NR2A as substrate incubated for 1 min prior to substrate addition measured after 1 min in presence of EGTA.
Assay [10] has as its target T1, Calcium/calmodulin-dependent protein kinase type II subunit alpha. The assay is described as follows: Inhibition of autophosphorylated alphaCaMK2 using GST-NR2A as substrate incubated for 1 min prior to substrate addition measured after 1 min.
The nature of assay [11]: Inhibition of Albino Wistar rat CaMK2 autophosphorylation at Thr286 in brain cytosolic fraction using [gamma32P]ATP incubated for 30 secs prior to ATP addition measured after 30 secs. The assay is classed as tissue-based.

T1 sequence (Q9UQM7 whole entry): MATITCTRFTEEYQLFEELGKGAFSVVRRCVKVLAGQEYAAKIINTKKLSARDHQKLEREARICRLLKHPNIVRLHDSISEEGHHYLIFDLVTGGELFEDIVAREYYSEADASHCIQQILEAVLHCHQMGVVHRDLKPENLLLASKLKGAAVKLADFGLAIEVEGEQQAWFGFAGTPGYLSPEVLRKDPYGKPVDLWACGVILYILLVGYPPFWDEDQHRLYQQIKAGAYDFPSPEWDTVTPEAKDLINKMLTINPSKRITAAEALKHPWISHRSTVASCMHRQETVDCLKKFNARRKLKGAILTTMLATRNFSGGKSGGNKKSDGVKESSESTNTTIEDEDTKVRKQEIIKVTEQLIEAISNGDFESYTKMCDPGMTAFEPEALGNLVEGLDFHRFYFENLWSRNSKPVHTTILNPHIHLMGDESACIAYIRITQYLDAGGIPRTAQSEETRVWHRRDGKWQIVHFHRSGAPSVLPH
Calcium/calmodulin-dependent protein kinase type II subunit alpha (Homo sapiens, UniProt Q9UQM7, T286D), sequence (Q9UQM7 whole entry T286D): as the sequence (Q9UQM7 whole entry) above, with T286D counted along it

`COc1cc(/C=C/C(O)=C/C(=O)/C=C/c2ccc(O)cc2)ccc1O` [DEMETHOXYCURCUMIN]: the IC50 in assay [1] was 24 µM.

As for `COc1cc(/C=C/C(=O)CC(=O)/C=C/c2ccc(O)c(OC)c2)ccc1O` (stereo in doubt) [CURCUMIN], the concentration for half-maximal inhibition (IC50) in assay [2] is 80 µM; in [3], 34 µM; in [4], 69 µM; in [5] it was 112 µM; in [6], 33 µM; in [7] it was 64 µM. The IC50 worked out at 33 µM in assay [8]; 21 µM in assay [1]; 37 µM in assay [9]; 45 µM in [10]; 143 µM in [11].

Regarding `COc1cc(/C=C/c2cc(/C=C/c3ccc(O)c(OC)c3)[nH]n2)ccc1O` [CURCUMIN PYRAZOLE], the concentration for half-maximal inhibition (IC50) in assay [2] was determined as 3.6 µM; in assay [3], 0.29 µM; in assay [4] it was 7.58 µM; in [5], 4.4 µM; in [6] it was 6.5 µM; in assay [7] it was 0.44 µM. Further, the IC50 in assay [8] was 0.34 µM; in [1], 1.49 µM; in [10], 6.3 µM; in assay [11], 16.3 µM.

On to `O=C(/C=C/c1ccc(O)cc1)CC(=O)/C=C/c1ccc(O)cc1` [BISDEMETHOXYCURCUMIN], for which the IC50 in [1] worked out at 37 µM.

Turning to `COc1cc(/C=C/c2cc(/C=C/c3ccc(O)c(OC)c3)n(-c3ccccc3)n2)ccc1O`, the IC50 in [2] was determined as 103 µM; in [3], 54 µM; in assay [4] it was 68 µM; in assay [5], 94 µM; in assay [6] it was 111 µM; in [7] it was 96 µM. In addition, the IC50 worked out at 62 µM in [8], 37 µM in assay [1], 79 µM in assay [10] and 80 µM in assay [11].

As for `COc1cc(/C=C/C(=O)CC(=O)/C=C/c2ccc(O)c(OC)c2)ccc1O` (stereo in doubt; 1) [CURCUMIN], the IC50 in assay [1] came to 13 µM.

Turning to `COc1cc(/C=C/c2cc(/C=C/c3ccc(O)c(OC)c3)on2)ccc1O`, the IC50 came to 22.9 µM in [2]; 0.68 µM in [3]; 22.8 µM in assay [4]; 28.9 µM in assay [5]; 18 µM in assay [6]; 13.7 µM in assay [7]. The IC50 was found to be 18.9 µM in assay [8], 11.4 µM in [1], 24.4 µM in assay [10] and 17.1 µM in assay [11].
